Tests used:
STAM mice (NASH models) = test: Non-alcoholic steatohepatitis (NASH) mouse models (STAM mice); format: in vivo; conditions: for NAFLD Activity score, compound administered group: 30 mg/kg twice daily orally for 3 weeks, age of six to nine weeks; for reduction in NAFLD activity score (statistical significance): versus vehicle group
Description: STAM (registered trademark) mice (Stelic Institute & Co., Inc.) were used as NASH models. The STAM (registered trademark) mice were prepared by subcutaneously administering 200 μg of streptozotocin (Sigma Aldrich) one time to the back of 2-day old male mice and feeding the mice with a high fat diet (High Fat Diet 32, CLEA Japan, Inc.) from the age of 4 weeks (Medical Molecular Morphology, 46 (2013) pp. 141-152).
The test compound was orally administered every day from the age of 5 or 6 weeks. At the age of 9 or 10 weeks, bloods and livers were collected under anesthesia. The bloods were subjected to biochemical tests. After the wet weights of the livers were measured, RNA was extracted from portions of the livers, and the expression levels of the inflammation and fibrosis marker genes were measured by the quantitative PCR method. Further, the amounts of hydroxyproline or collagen in the livers were measured. Paraffin sections or frozen sections were prepared from portions of the livers and were subjected to histopathological tests to determine the NAFLD activity scores, the fibrosis areas or the inflammation areas. The results were statistically analyzed using EXSUS (CAC EXICARE CORPORATION) or Prism 4 (GraphPad Software, Inc.).

human LPA1 = biological target: T1, human LPA1 (Homo sapiens, UniProt Q92633); test: Test of LPA1 antagonism ([35S]GTPγS binding, membrane fraction of RH 7777 cells expressing human LPA1); format: biochemical; conditions: LPA 100 nM, read-out: IC50, concentration required for 50% inhibition of the binding of LPA1 and [35S]GTPγS
T1 construct: purchased ChanTest A324; host or cells: RH 7777 cells (recombinant expression of human LPA1)
Description: 5 μg of a membrane fraction of RH 7777 cells expressing human LPA1 (A324, ChanTest) was suspended in a reaction buffer (20 mM HEPES, 100 mM NaCl, 10 mM MgCl2, 10 μM GDP, 5 μg saponin, 0.2% BSA, 0.1 nM [^35S]GTPγS (NEG030X, Perkin Elmer), pH 7.4). The test compounds dissolved in DMSO in various concentrations were each added to the suspension. After preincubation at 30° C. for 15 minutes, LPA (L7260, Sigma, final concentration 100 nM) was added, and the suspensions were incubated at 30° C. for 30 minutes. The membrane fractions were collected on a glass fiber filter (GF/B, Whatman) by using a cell harvester (M30, Brandel), and were washed with a 10 mM phosphate buffer (pH 7.4). The radioactivity of the membrane fractions was measured with a liquid scintillation analyzer (2900TR, Packard). The concentration (IC50) of the test compound required for 50% inhibition of the binding of LPA1 and [^35S]GTPγS was determined by non-linear regression analysis using EXSAS (Arm Systex).

T1 sequence (Q92633 whole entry): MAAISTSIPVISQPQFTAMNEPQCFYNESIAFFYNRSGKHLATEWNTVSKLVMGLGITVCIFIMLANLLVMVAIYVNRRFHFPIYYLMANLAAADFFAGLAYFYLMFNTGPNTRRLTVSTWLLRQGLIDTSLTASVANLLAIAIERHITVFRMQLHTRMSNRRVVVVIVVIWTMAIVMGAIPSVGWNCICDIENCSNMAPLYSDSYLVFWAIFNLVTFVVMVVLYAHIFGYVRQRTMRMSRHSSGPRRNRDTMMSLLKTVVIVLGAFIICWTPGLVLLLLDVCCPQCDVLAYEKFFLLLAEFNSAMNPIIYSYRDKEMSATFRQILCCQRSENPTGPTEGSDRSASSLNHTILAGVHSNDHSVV

IC50 (human LPA1) [nM]	Structure (SMILES)	NAFLD Activity score, compound administered group (STAM mice (NASH models))	reduction in NAFLD activity score (statistical significance) (STAM mice (NASH models))
–	COc1cc(-c2sc(Cl)cc2NC(=O)O[C@H](C)c2cc(F)ccc2F)ccc1-c1ccc(C2(C(=O)O)CC2)cc1 [Production Example 9, (R)-1-{4′-[5-chloro-3-({[1-(2,5-difluorophenyl)ethoxy]carbonyl}amino)thiophen-2-yl]-2′-methoxy-[1,1′-biphenyl]-4-yl}cyclopropanecarboxylic acid]	3.1 ± 1.4	significant (p<0.05) reduction
≤ 100	COc1cc(-c2sc(Cl)cc2NC(=O)O[C@H](C)c2ccccc2)ccc1-c1ccc(C2(C(=O)O)CC2)cc1 [Production Example 6, (R)-1-[4′-(5-chloro-3-{[(1-phenylethoxy)carbonyl]amino}thiophen-2-yl)-2′-methoxy-[1,1′-biphenyl]-4-yl]cyclopropanecarboxylic acid]	2.8 ± 1.0	significant (p<0.05) reduction
≤ 100	COc1cc(-c2sc(F)cc2NC(=O)O[C@H](C)c2ccccc2Cl)ccc1-c1ccc(C2(C(=O)O)CC2)cc1 [Production Example 8, (R)-1-{4′-[3-({[1-(2-chloropheny)ethoxy]carbonyl}amino)-5-fluorothiophen-2-yl]-2′-methoxy-[1,1′-biphenyl]-4-yl}cyclopropanecarboxylic acid]	–	–
≤ 100	Cc1cscc1[C@@H](C)OC(=O)Nc1cc(F)sc1-c1ccc(-c2ccc(C3(C(=O)O)CC3)cc2)cc1 [Production Example 7, (R)-1-{4′-[5-fluoro-3-({[1-(4-methylthiophen-3-yl)ethoxy]carbonyl}amino)thiophen-2-yl]-[1,1′-biphenyl]-4-yl}cyclopropanecarboxylic acid]	–	–

From patent US20180360803A1, “PHARMACEUTICAL COMPOSITION FOR TREATMENT OR PREVENTION OF NASH” (UBE INDUSTRIES, LTD., priority 2015, published 2018)
